This note sets out measurements from patent US9718816B2, “1-phenoxy-3-(alkylamino)-propan-2-ol derivatives as CARM1 inhibitors and uses thereof” (Epizyme, Inc., priority 2013, dated 2017).

In the test the test system is asymmetric di-methyl PABP1 in RKO cells. Description: RKO methylation assay (In Cell Western, asymmetric di-methyl PABP1). The format is cell-based. The note with it: Homo sapiens, 48 hours incubation, read-out: Cellular IC50. The text has this: RKO adherent cells were purchased from ATCC (American Type Culture Collection), Manassas, Va., USA. DMEM/Glutamax medium, penicillin-streptomycin, heat inactivated fetal bovine serum, 0.05% trypsin and D-PBS were purchased from Life Technologies, Grand Island, N.Y., USA. Odyssey blocking buffer, 800CW goat anti-rabbit IgG (H+L) antibody, and Licor Odyssey infrared scanner were purchased from Licor Biosciences, Lincoln, Nebr., USA. Asymmetric di-methyl PABP1 antibody was purchased from Cell Signaling Technology, Danvers, Mass., USA. Methanol was purchased from VWR, Franklin, Mass., USA. 10% Tween 20 was purchased from KPL, Inc., Gaithersburg, Md., USA. Paraformaldehyde (PFA) was purchased from EM Sciences. DRAQ5 was purchased from Biostatus Limited, Leicestershire, UK. […]
Calculations. First, the ratio for each well was determined by:
Each plate included fourteen control wells of DMSO only treatment (minimum inhibition) as well as fourteen control wells for maximum inhibition treated with 20 μM of a reference compound. The average of the ratio values for each control type was calculated and used to determine the percent […] for each test well in the plate. […]
Percent inhibition was determined and IC50 curves were generated using triplicate wells per concentration of compound.

As a reminder, the IC50 is the midpoint of a concentration-inhibition curve.

In the case of `CNCC(O)COc1cc(OC)cc(-c2cc(N3CCOCC3)n3ncc(C4CC4)c3n2)c1` (stereo not shown) [Example 18-6], the IC50 lay in the range of 5 to 10 µM.
